Data from US7176008B2, “Process for producing activated thrombin-activatable fibrinolysis inhibitor” (Merck & Co., Inc., priority 2002, dated 2007).
Residues, ends and D or L forms follow the SMILES beside them. *: point of attachment. Biotin = O=C1N[C@H]2[C@H](CS[C@H]2CCCCC(=O)*)N1; Ahx = NCCCCCC(=O)O

Columns and labels:
CPM = target: T1, CPM (Homo sapiens, UniProt P14384)
T1 sequence (P14384 18-423 limits assumed): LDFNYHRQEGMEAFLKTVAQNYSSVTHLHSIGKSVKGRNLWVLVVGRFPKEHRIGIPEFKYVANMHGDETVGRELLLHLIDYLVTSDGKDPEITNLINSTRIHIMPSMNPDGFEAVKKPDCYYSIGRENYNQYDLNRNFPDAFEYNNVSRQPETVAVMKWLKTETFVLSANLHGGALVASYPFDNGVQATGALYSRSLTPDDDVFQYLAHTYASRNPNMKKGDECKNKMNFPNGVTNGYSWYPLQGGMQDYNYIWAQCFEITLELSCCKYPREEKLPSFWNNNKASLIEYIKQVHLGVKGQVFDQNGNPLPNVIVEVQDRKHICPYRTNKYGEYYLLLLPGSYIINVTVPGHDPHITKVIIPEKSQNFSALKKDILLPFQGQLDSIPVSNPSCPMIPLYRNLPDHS
Procedure: (§1) A typical assay (75 μL) contained each studied carboxypeptidase and selected inhibitors (in 5 μL DMSO) in HBSP buffer in 96-well round bottom microtiter plates (Costar 3365 plates). Enzyme and compound were preincubated for 15–30 minutes at room temperature. […] The final substrate concentration was 15 to 50 nM. The amount of carboxypeptidase activity was titrated to result in 40,000–50,000 electrochemiluminescence counts (typically 0.02–0.1 nM, 0.01 nM, 5 nM, and 0.15–0.65 nM. for TAFIa, CPB, CPN and CPM, respectively). […] Ruthenium-labeled G2-10 (25 μL of 0.063 μg/mL) and streptavidin magnetic beads (25 μL of 0.2 mg/mL, Dynabeads M-280) were added to the quenched solution and shaken at 300 rpm for >1 hr. G2-10 antibody and beads were prepared in a BSA diluent containing 150 mM phosphate, pH 7.8, 150 mM NaCl, 3% (w/v) BSA (protease free fraction V) and 0.05% NaN3. The volume was brought to 250 μL with HBSP and read on an Igen 96-well electrochemiluminescence plate reader (M8 Analyzer) at 620 nm. Subtraction of background activity in solutions containing only substrate was performed to determine the final activity. […] One unit was defined as one nM product generated per min.
(§2) All measurements were performed in at least duplicates and the inhibition constants (Ki) were determined by the equation below wherein Vo and Vi are activity in the absence and presence of inhibitors, respectively. Vo/Vi=1+[I]/K1
(§3) Several commercial inhibitors were tested with the electrochemiluminescence assay.
(§4) Hydrolysis of substrate was measured in HBSP (pH 7.4) for TAFIa, CPB, CPM, and CPM. Activities of CPE and CPZ were measures in acetate buffer (pH 5.5) and Tris buffer (pH 7.4), respectively.

CPB = target: T2, CPB (Homo sapiens, UniProt P15086); details: CPB versus TAFIa
T2 sequence (P15086 111-417): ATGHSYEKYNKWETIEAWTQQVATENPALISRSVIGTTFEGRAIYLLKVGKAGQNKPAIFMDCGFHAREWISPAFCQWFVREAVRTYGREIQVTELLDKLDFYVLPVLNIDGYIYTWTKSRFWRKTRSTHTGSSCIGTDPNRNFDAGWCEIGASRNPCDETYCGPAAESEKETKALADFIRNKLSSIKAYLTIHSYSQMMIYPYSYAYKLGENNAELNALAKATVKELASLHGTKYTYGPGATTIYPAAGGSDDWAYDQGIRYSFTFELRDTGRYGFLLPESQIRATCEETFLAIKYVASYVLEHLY
Procedure: as §1, §2, §3, §4

CPZ = target: T3, CPZ (Homo sapiens, UniProt Q66K79)
T3 sequence (Q66K79 19-652): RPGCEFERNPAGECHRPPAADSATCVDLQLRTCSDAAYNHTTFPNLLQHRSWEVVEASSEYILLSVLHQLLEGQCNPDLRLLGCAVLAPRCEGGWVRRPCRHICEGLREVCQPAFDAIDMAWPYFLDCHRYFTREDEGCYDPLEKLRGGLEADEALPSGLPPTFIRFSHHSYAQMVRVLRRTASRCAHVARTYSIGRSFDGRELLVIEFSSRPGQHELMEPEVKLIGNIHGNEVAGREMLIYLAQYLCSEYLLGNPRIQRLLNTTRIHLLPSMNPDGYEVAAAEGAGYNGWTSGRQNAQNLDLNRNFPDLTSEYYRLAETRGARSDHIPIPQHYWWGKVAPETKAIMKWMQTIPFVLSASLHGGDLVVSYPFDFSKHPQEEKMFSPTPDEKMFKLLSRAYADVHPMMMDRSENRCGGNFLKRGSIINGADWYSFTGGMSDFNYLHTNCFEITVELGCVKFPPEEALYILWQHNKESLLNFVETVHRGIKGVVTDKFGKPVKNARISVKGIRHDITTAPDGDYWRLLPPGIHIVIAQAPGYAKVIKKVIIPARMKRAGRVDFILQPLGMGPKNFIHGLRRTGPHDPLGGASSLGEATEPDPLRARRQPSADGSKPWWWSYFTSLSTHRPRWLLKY
Procedure: Inhibition studies of CPE were performed in an acetate buffer containing 125 mM sodium acetate, pH 5.5, 1.25 mM CoCl2 at 37° C. […] CPE (final concentration 0.15 nM) was pre-incubated with inhibitors for 30 min at room temperature. The electrochemiluminescence substrate (final concentration 50 nM) was added and incubated for 6 hr at 37° C., then quenched with one-third volume of 1 M Tris, pH 8.0. The activity of CPZ was determined in 100 mM Tris, pH 7.4 at 37° C.
CPZ (final concentration 2 nM) was pre-incubated with inhibitors for 30 min at room temperature before substrate was added (final concentration 50 nM). […] The concentration of product was determined as described above.
as §2
Activities of CPE and CPZ were measures in acetate buffer (pH 5.5) and Tris buffer (pH 7.4), respectively.

CPE [1] = target: CPE (Homo sapiens, UniProt P16870); assay: biochemical
Procedure: (§5) Inhibition studies of CPE were performed in an acetate buffer containing 125 mM sodium acetate, pH 5.5, 1.25 mM CoCl2 at 37° C. […] CPE (final concentration 0.15 nM) was pre-incubated with inhibitors for 30 min at room temperature. The electrochemiluminescence substrate (final concentration 50 nM) was added and incubated for 6 hr at 37° C., then quenched with one-third volume of 1 M Tris, pH 8.0.
as §2

CPE [2] = system: CPE
Procedure: as §5, §2

most carboxypeptidases = details: read-out: Ki for most carboxypeptidases; all except CPE
Procedure: (§6) A typical assay (75 μL) contained each studied carboxypeptidase and selected inhibitors (in 5 μL DMSO) in HBSP buffer in 96-well round bottom microtiter plates (Costar 3365 plates). Enzyme and compound were preincubated for 15–30 minutes at room temperature. […] The final substrate concentration was 15 to 50 nM. The amount of carboxypeptidase activity was titrated to result in 40,000–50,000 electrochemiluminescence counts (typically 0.02–0.1 nM, 0.01 nM, 5 nM, and 0.15–0.65 nM. for TAFIa, CPB, CPN and CPM, respectively). […] Ruthenium-labeled G2-10 (25 μL of 0.063 μg/mL) and streptavidin magnetic beads (25 μL of 0.2 mg/mL, Dynabeads M-280) were added to the quenched solution and shaken at 300 rpm for >1 hr. G2-10 antibody and beads were prepared in a BSA diluent containing 150 mM phosphate, pH 7.8, 150 mM NaCl, 3% (w/v) BSA (protease free fraction V) and 0.05% NaN3. The volume was brought to 250 μL with HBSP and read on an Igen 96-well electrochemiluminescence plate reader (M8 Analyzer) at 620 nm. […]
(§7) All measurements were performed in at least duplicates and the inhibition constants (Ki) were determined by the equation below wherein Vo and Vi are activity in the absence and presence of inhibitors, respectively. […]
(§8) Hydrolysis of substrate was measured in HBSP (pH 7.4) for TAFIa, CPB, CPM, and CPM. […]

CPN = target: T4, CPN (Homo sapiens, UniProt P15169)
T4 sequence (P15169 21-458): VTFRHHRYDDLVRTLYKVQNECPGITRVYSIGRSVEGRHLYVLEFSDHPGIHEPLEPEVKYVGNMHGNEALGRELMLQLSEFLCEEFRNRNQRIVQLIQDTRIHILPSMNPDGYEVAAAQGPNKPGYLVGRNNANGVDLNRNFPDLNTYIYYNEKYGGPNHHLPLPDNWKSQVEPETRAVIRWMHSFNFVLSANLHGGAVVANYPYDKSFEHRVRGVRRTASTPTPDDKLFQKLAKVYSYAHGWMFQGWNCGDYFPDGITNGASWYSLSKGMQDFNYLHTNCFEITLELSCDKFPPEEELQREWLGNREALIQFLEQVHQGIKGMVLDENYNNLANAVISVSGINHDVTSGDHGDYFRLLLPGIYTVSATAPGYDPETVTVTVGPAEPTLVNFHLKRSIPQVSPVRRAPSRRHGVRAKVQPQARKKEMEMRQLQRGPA
T4 sequence (P22792 22-545 partner): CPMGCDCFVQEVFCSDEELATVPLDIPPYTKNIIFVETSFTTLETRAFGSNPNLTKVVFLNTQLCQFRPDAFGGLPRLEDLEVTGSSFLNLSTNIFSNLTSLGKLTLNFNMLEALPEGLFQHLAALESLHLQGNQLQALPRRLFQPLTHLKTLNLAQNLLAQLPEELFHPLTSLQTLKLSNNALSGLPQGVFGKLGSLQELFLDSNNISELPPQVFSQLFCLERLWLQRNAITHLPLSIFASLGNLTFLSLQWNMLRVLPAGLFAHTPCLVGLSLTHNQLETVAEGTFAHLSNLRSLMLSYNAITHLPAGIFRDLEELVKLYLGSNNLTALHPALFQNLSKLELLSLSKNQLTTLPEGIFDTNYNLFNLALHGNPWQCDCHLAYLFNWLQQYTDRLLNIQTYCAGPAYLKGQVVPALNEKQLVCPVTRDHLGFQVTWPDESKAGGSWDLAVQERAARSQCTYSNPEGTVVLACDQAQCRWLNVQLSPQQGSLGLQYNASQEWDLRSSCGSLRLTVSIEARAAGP
Procedure: as §6, §7, §8

CPE (Homo sapiens, UniProt P16870), sequence (P16870 43-450 limits assumed): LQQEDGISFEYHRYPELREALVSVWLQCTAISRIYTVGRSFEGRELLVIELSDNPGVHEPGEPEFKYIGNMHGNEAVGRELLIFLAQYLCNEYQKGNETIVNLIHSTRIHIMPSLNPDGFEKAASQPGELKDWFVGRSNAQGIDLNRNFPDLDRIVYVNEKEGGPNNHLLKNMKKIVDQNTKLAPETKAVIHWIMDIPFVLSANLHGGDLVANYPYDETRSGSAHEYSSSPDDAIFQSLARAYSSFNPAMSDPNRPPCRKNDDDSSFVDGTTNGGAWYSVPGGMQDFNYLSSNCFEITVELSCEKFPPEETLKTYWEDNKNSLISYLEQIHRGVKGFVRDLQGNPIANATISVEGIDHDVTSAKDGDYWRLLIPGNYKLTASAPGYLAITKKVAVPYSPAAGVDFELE

N=C(N)NCCSCC(CS)C(=O)O (racemic) [Plummer's Inhibitor, DL-2-mercaptomethyl-3-guinidinoethylthiopropanoic acid]
Ki (CPM): 0.003 µM | inhibitory potency toward CPB relative to TAFIa (CPB): two to three orders of magnitude greater

CSCC[C@H](NC(=O)[C@H](CC(C)C)NC(=O)CNC(=O)CCCCCNC(=O)CCCCCNC(=O)CCCC[C@@H]1SC[C@@H]2NC(=O)N[C@@H]21)C(=O)N[C@H](C(=O)NCC(=O)NCC(=O)N[C@H](C(=O)N[C@H](C(=O)N[C@@H](CCCNC(=N)N)C(=O)O)C(C)C)C(C)C)C(C)C ({Biotin-Ahx-Ahx}-GLMVGGVVR-OH)
Km (CPM; read-out: Km for CPM, 37° C.): > 50 µM

N=C(N)NCCSC(CC(=O)O)C(=O)O (centres unmarked) [GEMSA, 2-guanidinoethylmercaptosuccinic acid]
Ki (CPZ): 7 µM | fold less potent for CPZ than for CPE (CPZ; CPZ versus CPE): 440 fold | Ki (CPE [1]): 0.016 µM | inhibitory potency toward CPB relative to TAFIa (CPB): two to three orders of magnitude greater

NCCCCCC(=O)O [ε-aminocaproic acid]
fold more potent on CPE than inhibition of CPB (CPE [2]; CPE versus CPB): > 100 fold | potency on CPE relative to the other enzymes (CPE [2]; CPE versus other carboxypeptidases): two orders of magnitude more potent | Ki (most carboxypeptidases): ≥ 1000 µM | IC50 (CPE [1]): 8 µM | Ki (CPE [1]): 8.2 µM

protamine
specificity for CPN activity (CPN; CPN versus the other carboxypeptidases): > 100 fold | Ki (CPN; read-out: Ki for CPN, room temperature, HBSP pH 7.4): 0.97 µM
